US7241785B2, “Five-membered heterocyclic alkanoic acid derivative” (Takeda Pharmaceutical Company Limited, priority 2001, dated 2007)

What was measured:
[1] = system: KKA^y mice; experiment: Hypoglycemic and hypolipidemic (hypotriglyceridemic) actions in mice; format: in vivo; conditions: Mus musculus, po, 96 h, 0.01% in powdery diet, four days
Procedure: Hypoglycemic and Hypolipidemic (Hypotriglyceridemic) Actions in Mice
Test compounds were mixed in a powdery diet (CE-2, Japan Clea) at the concentration of 0.01%, and freely given to KKA^y mice (11 to 12 weeks old, 5 mice per group), a model of type 2 diabetes mellitus, for four days. During this period, water was given freely. Blood was sampled from orbital venous plexus, and glucose and triglyceride levels in plasma separated from the blood were determined enzymatically using L type Wako Glu2 (Wako Pure Chemical Industries, Ltd.) or L type Wako TG.H (Wako Pure Chemical Industries, Ltd.), respectively.
In the Table, “hypoglycemic action (%)” represents a percent reduction (%) of the blood glucose level in the treatment group when the blood glucose level in the non-treatment group is taken as 100%. In addition, “hypolipidemic action (%)” represents a percent reduction (%) of the blood triglyceride level in the treatment group when the blood triglyceride level in the non-treatment group is taken as 100%.

[2] = system: KKA^y mice; experiment: Total cholesterol lowering action and plasma anti-arteriosclerosis index-enhancing action in mice; format: in vivo; conditions: Mus musculus, po, 96 h, 0.01% in powdery diet, four days
Procedure: Total Cholesterol Lowering Action and Plasma Anti-Arteriosclerosis Index-Enhancing Action in Mice
Test compounds were mixed in a powdery diet (CE-2, Japan Clea concentration of 0.01%, and freely given to KKA^y mice (11 to 12 weeks old, 5 mice per group), a model of type 2 diabetes mellitus, for four days. During this period, water was given freely. Blood was sampled from orbital venous plexus, and components in plasma separated from the blood were determined. Total cholesterol levels were determined using L type Wako Cholesterol (Wako Pure Chemical Industries, Ltd.). Precipitation reagent for HDL cholesterol was added to a part of the plasma to precipitate non-HDL lipoprotein, and cholesterol (HDL cholesterol) in the resulting supernatant was determined. The plasma anti-arteriosclerosis index [(HDL cholesterol/total cholesterol)×100] was calculated using these cholesterol levels.
In the Table, “total cholesterol lowering action (%)” represents a percent reduction (%) of the total cholesterol level in the treatment group when the total cholesterol level in the non-treatment group is taken as 100%. In addition, “plasma anti-arteriosclerosis index-enhancing action (%)” represents a percent increase (%) of the plasma anti-arteriosclerosis index in the treatment group when the plasma anti-arteriosclerosis index in the non-treatment group is taken as 100%.

[3] = target: T1, PPARδ-RXRα heterodimer (Homo sapiens, UniProt Q03181); experiment: PPARδ-RXRα heterodimer ligand activity (luciferase reporter, PPARδ:RXRα:4ERPP/CHO-K1 cells); format: cell-based; parameters: expressed in transfected cells; conditions: concentration for 50% of maximum fold induction of luciferase, 48 hrs
T1 sequence (Q03181 1-441): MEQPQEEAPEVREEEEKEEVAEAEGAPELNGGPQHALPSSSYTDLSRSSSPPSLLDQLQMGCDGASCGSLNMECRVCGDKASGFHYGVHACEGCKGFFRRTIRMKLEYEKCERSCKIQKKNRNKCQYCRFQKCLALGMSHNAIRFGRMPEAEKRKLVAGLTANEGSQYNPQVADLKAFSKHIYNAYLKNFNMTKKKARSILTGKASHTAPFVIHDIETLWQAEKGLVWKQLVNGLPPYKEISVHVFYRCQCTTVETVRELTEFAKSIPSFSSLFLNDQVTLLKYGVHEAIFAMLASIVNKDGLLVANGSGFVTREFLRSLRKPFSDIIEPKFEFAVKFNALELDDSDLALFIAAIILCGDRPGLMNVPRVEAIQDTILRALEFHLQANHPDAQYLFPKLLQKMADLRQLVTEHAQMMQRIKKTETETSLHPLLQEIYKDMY
T1 sequence (P19793 1-462 partner): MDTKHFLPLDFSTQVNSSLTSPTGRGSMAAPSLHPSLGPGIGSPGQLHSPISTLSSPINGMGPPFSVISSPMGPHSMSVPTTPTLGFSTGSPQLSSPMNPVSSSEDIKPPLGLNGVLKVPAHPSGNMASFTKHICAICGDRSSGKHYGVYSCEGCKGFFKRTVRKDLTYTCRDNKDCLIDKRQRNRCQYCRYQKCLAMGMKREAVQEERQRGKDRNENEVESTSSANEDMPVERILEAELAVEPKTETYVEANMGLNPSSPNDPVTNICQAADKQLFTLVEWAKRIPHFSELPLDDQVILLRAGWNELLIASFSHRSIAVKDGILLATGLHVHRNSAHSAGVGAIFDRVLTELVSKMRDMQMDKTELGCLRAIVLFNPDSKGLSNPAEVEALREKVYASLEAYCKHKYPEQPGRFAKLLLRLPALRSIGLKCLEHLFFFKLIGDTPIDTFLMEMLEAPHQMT
Procedure: (§1) PPARδ-RXRα Heterodimer Ligand Activity
PPARδ:RXRα:4ERPP/CHO-K1 cells obtained in Reference Example 5a were cultured in HAM F12 medium (produced by NISSUI SEIYAKU) containing 10% fetal bovine serum (produced by Life Technologies, Inc., USA) and then seeded in a 96-well white plate (produced by Corning Costar Corporation, USA) at the density of 2×10^4 cells/well, and cultured in a CO2 gas incubator at 37° C. overnight.
After washing the 96 well white plate with PBS (Phosphate-buffered saline), 90 μl of HAM F12 medium containing 0.1% fatty acid-free bovine serum albumin (BSA) and 10 μl of test compound were added, and the cells were cultured in a CO2 gas incubator at 37° C. for 48 hrs. After removing the medium, 40 μl of PicaGene 7.5 (produced by Wako Pure Chemical Industries, Ltd.) was added. After stirring, the luciferase activity was determined using Lumistar (produced by BMG Labtechnologies GmbH, Germany).
The fold induction was calculated from the luciferase activity of each test compound when the luciferase activity in the non-treatment group is taken as 1. The values of the test compound concentration and the fold induction were analyzed using PRISM 2.01 (produced by GraphPad Software Inc. USA) to calculate the EC50 values, the effective concentration of a test compound for 50% of the maximum fold induction. […]

[4] = target: T1, PPARδ-RXRα heterodimer; experiment: PPARδ-RXRα heterodimer ligand activity (luciferase reporter, transfected COS-1 cells); format: cell-based; parameters: expressed in transfected cells; host or cells: COS-1 (transient, lipofectamine); conditions: concentration for 50% of maximum fold induction of luciferase, 48 hrs
Procedure: as §1
The COS-1 cells obtained in Reference Example 9a were recovered, suspended in DMEM medium containing 0.1% fatty acid-free bovine serum albumin (BSA)(manufactured by Wako Pure Chemical Industries, Ltd.) (Nikken Biomedical Laboratory) and seeded in each well of a 96-well white plate (manufactured by Corning Costar Corporation, USA) at the density of 2×10^4 cells/well ([…]). Then, the test Compound ([…]) was added and the cells were cultured at 37° C., 5% CO2 for 48 hrs. The medium was removed from the 96-well white plate and PicaGine LT7.5 ([…], Wako Pure Chemical Industries) was added. After stirring, luciferase activity was measured using 1420 ARVO Multilabel Counter (Wallac)).
The fold induction was calculated from the luciferase activity of the test compound when the luciferase activity of the non-treatment group is taken as 1. The values of the test compound concentration and the fold induction were analyzed using PRISM 2.01 (produced by GraphPad Software Inc. USA) to calculate the EC50 values, the effective concentration of a test compound for 50% of the maximum fold induction.
Introduction of Plasmid and Reporter Plasmid for Expression of Human PPARδ, RXRα into COS-1 Cell […]

Row | melting point [°C] | EC50 [3] [nM] | EC50 [4] [nM] | Structure (SMILES) | inhibition in vivo at 0.01 % in diet ([1]; percent reduction of blood glucose level vs non-treatment group (100%), read-out: Hypoglycemic action (%)) [%] | inhibition in vivo at 0.01 % in diet ([1]; percent reduction of blood triglyceride level vs non-treatment group (100%), read-out: Hypolipidemic action (%)) [%] | change in vivo at 0.01 % in diet ([2]; percent increase of index [(HDL cholesterol/total cholesterol)×100] vs non-treatment group (100%)) [%] | inhibition in vivo at 0.01 % in diet ([2]; percent reduction of total cholesterol level vs non-treatment group (100%)) [%]
1 | 121 to 122 | 670 | – | Cc1oc(-c2ccccc2)nc1COc1ccc(Sc2nc(-c3ccccc3)c(CCC(=O)O)s2)cc1 [Example 12, 3-[2-[4-(5-methyl-2-phenyl-4-oxazolylmethoxy)phenylthio]-4-phenyl-5-thiazolyl]propionic acid] | 52 | 56 | 15 | 22
2 | – | – | 680 | Cc1nc(SCc2ccc(OCc3nc(-c4ccccc4)oc3C)cc2)sc1CC(=O)O [Example 58, [4-methyl-2-[4-(5-methyl-2-phenyl-4-oxazolylmethoxy)benzylthio]thiazol-5-yl]acetic acid] | – | – | – | –
3 | – | – | 260 | Cc1nc(SCc2cccc(OCc3nc(-c4ccccc4)oc3C)c2)sc1CC(=O)O [Example 60, [4-methyl-2-[3-(5-methyl-2-phenyl-4-oxazolylmethoxy)benzylthio]thiazol-5-yl]acetic acid] | – | – | – | –
